Data from ChEMBL document CHEMBL3507680, “University of Dundee, Gates Library screen for HepG2 cell viability”.

Test: Human HepG2 cell viability assay in 384 well format
Assay type: toxicity, cell-based
Set-up: dose 125 nL, time 70.5 hour; concentration not given beside the values
Settings: HepG2 cells, read-out: Inhibition

Structure (SMILES) | cytotoxicity at 70.5 h [%]
CCS(=O)(=O)N1CCC(NC(=O)c2cc3ccccc3cc2O)CC1 | 12.9
Cc1ccc(S(=O)(=O)N2CCC(Oc3cccnn3)CC2)c(C)c1 | -8.17
COCCCNC(=O)CN(C)C(=O)c1cc(C)ccc1N(C)C(C)C | -3.7
Cc1ncc2c(n1)CN(CC(=O)Nc1nnc(C)s1)CC2 | -8.66
Cc1c(Br)cnn1C(C)C(=O)Nc1nncs1 (stereo not drawn) | -14.2
Cn1cc(CCC(=O)NCc2ccccc2OC(C)(C)C)cn1 | 2.39
CC(C#N)CSc1ccccc1NCC(=O)Nc1ccccc1 (stereo not drawn) | 14.3
OC1(Cn2ccnc2)CCN(C[C@]2(O)CCCN3CCCC[C@@H]32)CC1 | 11.3
CCCNC(=O)c1cnc(N(C)C)nc1COC | -5.33
CC(C)C(=O)N1CCN(C(=O)N(C)C)CC2(CC(=O)N(C)C2)C1 (stereo not drawn) | 37.2
CCOc1ccc(NC(=O)c2cccc(OC)c2OC)cc1 | -1.48
CCc1nnc2n1CCN(C(=O)COCCc1ccccc1)C2 | -14.7
CCNC(=O)[C@@H]1C[C@H](N)CN1C(=O)Cc1cc(C)ccc1C | -12.9
CO[C@H]1CN(Cc2c(C)ccc3ncccc23)CC[C@H]1N | 2.94
O=C(CCn1cnnn1)N1CCCC(CO)(CCCc2ccccc2)C1 (stereo not drawn) | -1.63
CC1(C)OCC2(CO1)CN(C(=O)c1ccccc1Br)C2 | -4.2
CC1(C(=O)N2CCOCC2)CN(Cc2cccnc2)CCO1 (stereo not drawn) | -8.77
Cc1nn(C)c(C)c1C1CCCN1c1ncnc2c1CCC2 (stereo not drawn) | 1.18
CCN1CCC2(CN(C(=O)N(C)C)CC23CCNCC3)C1=O (stereo not drawn) | -8.8
Cn1ncc2c(N3CCN(CCC(N)=O)CC3)nc(C3CCCC3)nc21 | -9.84
Cc1nn(C)c(N2CCOCC2)c1CNCc1ccnc(N(C)C)c1 | -5.34

Structure (SMILES) | cytotoxicity at 70.5 h [%]
N#Cc1ccc(CNCC(C(=O)N2CCOCC2)c2ccccc2)cc1 (stereo not drawn) | -3
N#Cc1cccc(OCc2ccoc2C(=O)N2CCCCC2)c1 | 3.19
CCc1nc(C2CCCN2Cc2nc(CCOC)no2)no1 (stereo not drawn) | -9.31
NC(=O)CCn1cc(CNCCCc2csc(N)n2)c2ccccc21 | -6.3
Cc1ccc(N2CCC3(CCN(Cc4csc(C)n4)CC3)CC2)nn1 | -6.42
CN(C)CCNC(=O)CC1CCN(c2cccnn2)CC1 | -2.25
COCCN1C(=O)[C@H]2CC[C@@H]1CN(C(=O)Cc1c(F)cccc1Cl)C2 | -8.61
CCN(CC)S(=O)(=O)c1cc(NC(=O)CCc2cscn2)ccc1C | -6.12
OCc1ccc(CN(CCCn2ccnc2)Cc2cccnc2)o1 | -8.65
CCc1nc(CN2CCCN(C(=O)c3cnc(C)cn3)CC2)cs1 | 1.16
Cc1cnn(CC2CCCN2Cc2cc(C)no2)c1 (stereo not drawn) | -14
CCN1CCNC(=O)C12CCN(S(=O)(=O)c1ccccc1)CC2 | -6.26
CCCc1nccn1-c1cccc(C(C)O)c1 (stereo not drawn) | -2.3
CC(C)CN1C(=O)C2(CCCC2)NC12CCSCC2 | 0.871
Cc1cccc(CN2C[C@H]3CCC[C@@]3(COCc3csc(C)n3)C2)n1 | -6.32
CCOCCC(=O)Nc1cccc(Oc2ccccn2)c1 | 23.9
O=C(NCCn1cnnc1C1CC1)c1c(O)cc(F)cc1F | -11.9
Cn1ncc2c(NCC3CCCN3c3cccnn3)ncnc21 (stereo not drawn) | -3.62
O=c1cc(CN2CCCC2)nc2n1CCCN(Cc1ccoc1)C2 | 1.82
C[S+]([O-])CCNC(=O)N1CCSC2(CCCCC2)C1 (stereo not drawn) | -3.78
COc1cc(C(=O)NCCc2ccccc2OC)on1 | -1.09

Structure (SMILES) | cytotoxicity at 70.5 h [%]
CN(C)C(=O)[C@H]1C[C@H]2OCC[C@H]2N(Cc2ccccn2)C1 | -2.93
Cc1cc(C(=O)N2CCC(Nc3cccnn3)CC2)no1 | 11.5
Cc1cnn(CCC(=O)N2CCCN(c3ccccc3C#N)CC2)c1 | -1.64
C[C@@H]1CN(c2nc(O)cc(Cc3ccccc3F)n2)C[C@H](C)O1 | 19.5
CCS(=O)(=O)N1CCC(c2cc3n(n2)[C@@H](C(F)(F)F)C[C@@H](C)N3)CC1 | -17.1
CN(CC(F)(F)F)C(=O)CNC(=O)N1CCCC(C(F)(F)F)C1 (stereo not drawn) | -2.98
CCc1nc(CC(=O)N2CCCC2CN2CCCC2)cs1 (stereo not drawn) | -1.93
Cc1cc(NCc2ccc(C#N)cc2)n2nc(C)cc2n1 | -4.7
CC1CCc2nc(O)c(C(=O)NCCCN3CCN(C)CC3)cc2C1 (stereo not drawn) | -7.22
O=C(CCc1cc2n(n1)CCCN(C(=O)c1ccncc1)C2)NC1CC1 | -6.73
O=C1NCC2(CCCN(Cc3ccccc3OCCO)C2)O1 (stereo not drawn) | -8.84
N#Cc1ccc(CC(=O)N2CCC(Nc3cccnn3)CC2)cc1 | -5.35
Cc1nc(CNC(=O)NC2CCN(c3ncccc3Cl)C2)oc1C (stereo not drawn) | 14.8
CCCN1CCCN(C(=O)Nc2ccc3c(c2)OCO3)CC1 | -7.91
O=C(c1ccoc1)N1CCC2(CC1)COC(COc1ccccn1)C2 (stereo not drawn) | -4.94
CC(C)CCc1nc(CNCC2CCCN2c2cccnn2)cs1 (stereo not drawn) | 12.1
COc1ccc(C(C(=O)O)N2CCC(Cn3cccn3)CC2)cc1F (stereo not drawn) | 22.7
O=C(CCCc1nc(-c2ccccc2)no1)N1CCN(CCO)CC1 | 17.6
CCN(C(=O)CN1CCn2c(C)nnc2C1)C1=CCCCC1 | -17
OCCN(Cc1nc(-c2ccc3c(c2)OCO3)no1)Cc1cccs1 | -16.8
Cc1nc2ccnn2c(C)c1CCC(=O)N1CCN(CCO)CC1 | -9.84

Structure (SMILES) | cytotoxicity at 70.5 h [%]
CCCc1nccn1-c1cccc(CN2CCCC2)c1 | -2.36
Cc1cc(CNC(=O)N2CCOC(c3ccccc3Cl)C2)no1 (stereo not drawn) | -7.66
Cc1cnn(C2CN(C(C)c3nc(-c4ccccc4)no3)C2)c1 (stereo not drawn) | -8.84
Cc1cccc(CN2CCN(c3ncnc4[nH]cnc34)CC2CCO)n1 (stereo not drawn) | 9.72
Cc1nc(CNCC2CCCN(C(=O)OC(C)(C)C)C2)cs1 (stereo not drawn) | 27.5
Cc1cnn(CC(C)NCc2csc(-c3cnn(C)c3)n2)c1 (stereo not drawn) | 51.9
O=C(c1cc(-c2cn[nH]c2)nc2cc(F)ccc12)N1CCS(=O)(=O)CC1 | -13.7
Cc1ccc(C)c(OCCN(C)C(=O)CCc2cn[nH]c2)c1 | -12.7
CN(C)CCOCc1cncc2c1CCN(Cc1ccccn1)C2 | -10.9
COc1cc(C(=O)NCc2ccc3c(c2)CCCN3C)cc(OC)c1Br | -8.61
CC(C)CN1CCC2(C=C(C(=O)N(C)C)c3ccccc32)CC1 | -2.19
CCc1noc(C(C)N2CCC(C(=O)Nc3cnn(CC)c3)CC2)n1 (stereo not drawn) | 41.4
COCC(=O)N1CCCC1c1nc(O)cc(C(C)C)n1 (stereo not drawn) | 1.53
Cc1csc(NC(=O)NCCCN2CCC(C(N)=O)CC2)n1 | -16.3
O=C(c1[nH]nc(C2CC2)c1Cl)N1CCN(S(=O)(=O)c2ccccc2)CC1 | 18.5
CCn1cc(Br)c(C(=O)NCc2ccc(F)cc2)n1 | 4.64
OC1(CNc2ccc(Br)cn2)CCC1 | 16.3
CNC(=O)CN(C)c1cncc(OCc2ccccc2)n1 | 8.53
O=C(NCc1cccnc1-n1cncn1)c1ccncc1 | -4.72
CC(C)(C)OC(=O)NCCNC(=O)c1ccc(-c2ccco2)[nH]c1=O | -0.98
